Test results taken from ChEMBL document CHEMBL1140804, “Design, synthesis and evaluation of trifluoromethane sulfonamide derivatives as new potent and selective peroxisome proliferator-activated receptor alpha agonists” (Bioorg Med Chem Lett, 2008).

Target: T1, Peroxisome proliferator-activated receptor alpha (Homo sapiens, UniProt Q07869)
T1 sequence (Q07869 whole entry): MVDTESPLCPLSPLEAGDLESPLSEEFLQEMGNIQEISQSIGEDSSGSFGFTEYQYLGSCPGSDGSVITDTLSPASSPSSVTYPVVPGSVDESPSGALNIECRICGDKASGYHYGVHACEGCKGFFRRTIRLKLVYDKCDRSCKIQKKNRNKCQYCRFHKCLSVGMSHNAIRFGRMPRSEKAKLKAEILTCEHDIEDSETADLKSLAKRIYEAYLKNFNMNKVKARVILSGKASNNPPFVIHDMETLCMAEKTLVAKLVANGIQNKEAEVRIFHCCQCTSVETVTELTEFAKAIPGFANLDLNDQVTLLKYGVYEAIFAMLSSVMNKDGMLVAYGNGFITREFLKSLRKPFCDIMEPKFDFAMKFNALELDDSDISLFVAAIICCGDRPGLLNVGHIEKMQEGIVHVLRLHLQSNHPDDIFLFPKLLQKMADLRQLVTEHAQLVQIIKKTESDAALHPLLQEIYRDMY
Description: Agonist activity at human PPARalpha assessed as receptor activation by cell based assay

Structure (SMILES)	EC50 [µM]
Cc1nc(-c2ccc(C(F)(F)F)cc2)sc1C(=O)NCc1ccc(OCc2nn[nH]n2)cc1	> 10
CC(C)(Oc1ccc(CNC(=O)c2ccc(-c3ccc(C#N)cc3)cc2)cc1)C(=O)O	1
O=C(Cc1ccc(-c2ccc(Cl)cc2)cc1)NCc1ccc(NS(=O)(=O)C(F)(F)F)cc1	0.08

More lines, now with the values ahead:

EC50 [µM]	Structure (SMILES)
1	Cc1ccc(S(=O)(=O)Nc2ccc(CNC(=O)c3sc(-c4ccc(C(F)(F)F)cc4)nc3C)cc2)cc1
0.32	CCCCS(=O)(=O)Nc1ccc(CNC(=O)c2sc(-c3ccc(C(F)(F)F)cc3)nc2C)cc1
0.45	Cc1nc(-c2ccc(C(F)(F)F)cc2)sc1C(=O)NCc1ccc(NC(=O)C(F)(F)F)cc1

Target: T2, Peroxisome proliferator-activated receptor gamma (Mus musculus, UniProt P37238)
T2 sequence (P37238 whole entry): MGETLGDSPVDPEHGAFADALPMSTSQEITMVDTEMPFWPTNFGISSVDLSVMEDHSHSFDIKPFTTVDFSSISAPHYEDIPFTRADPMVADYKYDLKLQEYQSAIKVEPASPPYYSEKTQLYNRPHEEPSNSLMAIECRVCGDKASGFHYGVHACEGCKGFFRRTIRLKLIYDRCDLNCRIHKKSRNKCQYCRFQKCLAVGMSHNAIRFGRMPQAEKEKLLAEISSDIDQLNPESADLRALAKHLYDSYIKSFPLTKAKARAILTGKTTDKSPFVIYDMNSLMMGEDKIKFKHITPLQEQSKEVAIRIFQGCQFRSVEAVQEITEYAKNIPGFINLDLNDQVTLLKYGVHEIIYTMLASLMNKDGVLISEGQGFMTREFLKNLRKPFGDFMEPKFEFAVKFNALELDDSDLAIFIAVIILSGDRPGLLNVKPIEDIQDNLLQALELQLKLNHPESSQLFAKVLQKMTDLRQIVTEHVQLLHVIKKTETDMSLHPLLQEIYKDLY
Description: Agonist activity at mouse PPARgamma assessed as receptor activation by cell based assay

EC50 [µM]	Structure (SMILES)
> 10	Cc1ccc(S(=O)(=O)Nc2ccc(CNC(=O)c3sc(-c4ccc(C(F)(F)F)cc4)nc3C)cc2)cc1
6.7	CCCCS(=O)(=O)Nc1ccc(CNC(=O)c2sc(-c3ccc(C(F)(F)F)cc3)nc2C)cc1
> 10	Cc1nc(-c2ccc(C(F)(F)F)cc2)sc1C(=O)NCc1ccc(OCc2nn[nH]n2)cc1
> 10	Cc1nc(-c2ccc(C(F)(F)F)cc2)sc1C(=O)NCc1ccc(NC(=O)C(F)(F)F)cc1

Target: T3, Peroxisome proliferator-activated receptor alpha (Mus musculus, UniProt P23204)
T3 sequence (P23204 whole entry): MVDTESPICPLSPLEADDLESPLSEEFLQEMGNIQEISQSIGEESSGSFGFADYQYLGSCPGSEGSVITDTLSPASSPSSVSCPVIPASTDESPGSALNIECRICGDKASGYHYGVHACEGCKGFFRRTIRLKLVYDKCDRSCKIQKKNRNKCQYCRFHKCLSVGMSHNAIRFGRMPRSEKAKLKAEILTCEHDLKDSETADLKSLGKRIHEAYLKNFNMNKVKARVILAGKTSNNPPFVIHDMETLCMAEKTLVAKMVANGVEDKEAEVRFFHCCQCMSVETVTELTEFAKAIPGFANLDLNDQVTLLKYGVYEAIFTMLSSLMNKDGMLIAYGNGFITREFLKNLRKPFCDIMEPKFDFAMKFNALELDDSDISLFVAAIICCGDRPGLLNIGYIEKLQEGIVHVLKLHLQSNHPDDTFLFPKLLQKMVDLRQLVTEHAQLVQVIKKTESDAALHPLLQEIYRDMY
Description: (§1) Agonist activity at mouse PPARalpha assessed as receptor activation by cell based assay

Structure (SMILES)	EC50 [µM]
Cc1nc(-c2ccc(C(F)(F)F)cc2)sc1C(=O)NCc1ccc(OCc2nn[nH]n2)cc1	> 10
CC(C)(Oc1ccc(CNC(=O)c2ccc(-c3ccc(C#N)cc3)cc2)cc1)C(=O)O	> 25
O=C(Cc1ccc(-c2ccc(Cl)cc2)cc1)NCc1ccc(NS(=O)(=O)C(F)(F)F)cc1	0.34

Further lines, results first:

EC50 [µM]	Structure (SMILES)
> 10	Cc1ccc(S(=O)(=O)Nc2ccc(CNC(=O)c3sc(-c4ccc(C(F)(F)F)cc4)nc3C)cc2)cc1
> 10	CCCCS(=O)(=O)Nc1ccc(CNC(=O)c2sc(-c3ccc(C(F)(F)F)cc3)nc2C)cc1
> 10	Cc1nc(-c2ccc(C(F)(F)F)cc2)sc1C(=O)NCc1ccc(NC(=O)C(F)(F)F)cc1

Target: T4, Peroxisome proliferator-activated receptor alpha (Mus musculus) (UniProt P23204)
T4 sequence (whole entry): T3 sequence (P23204 whole entry)
Description: as §1

Activity [%]	Structure (SMILES)
0.34	O=C(Cc1ccc(-c2ccc(Cl)cc2)cc1)NCc1ccc(NS(=O)(=O)C(F)(F)F)cc1

Target: T5, Peroxisome proliferator-activated receptor gamma (Homo sapiens, UniProt P37231)
T5 sequence (P37231 whole entry): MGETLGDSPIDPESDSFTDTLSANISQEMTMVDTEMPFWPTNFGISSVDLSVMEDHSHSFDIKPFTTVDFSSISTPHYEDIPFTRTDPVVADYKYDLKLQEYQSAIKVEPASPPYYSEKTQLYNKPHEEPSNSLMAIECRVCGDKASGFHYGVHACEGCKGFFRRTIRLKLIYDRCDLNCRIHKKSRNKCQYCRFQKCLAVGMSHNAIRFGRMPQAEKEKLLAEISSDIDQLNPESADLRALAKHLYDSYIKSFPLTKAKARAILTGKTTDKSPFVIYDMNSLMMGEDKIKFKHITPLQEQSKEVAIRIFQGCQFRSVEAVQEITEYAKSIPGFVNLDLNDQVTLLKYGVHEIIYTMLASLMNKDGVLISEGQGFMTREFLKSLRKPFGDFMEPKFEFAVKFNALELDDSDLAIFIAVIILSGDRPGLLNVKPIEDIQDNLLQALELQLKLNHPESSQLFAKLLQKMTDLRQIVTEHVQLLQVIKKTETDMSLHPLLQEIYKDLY
Description: Agonist activity at human PPARgamma assessed as receptor activation by cell based assay

EC50 [µM]	Structure (SMILES)
> 10	Cc1ccc(S(=O)(=O)Nc2ccc(CNC(=O)c3sc(-c4ccc(C(F)(F)F)cc4)nc3C)cc2)cc1
5.5	CCCCS(=O)(=O)Nc1ccc(CNC(=O)c2sc(-c3ccc(C(F)(F)F)cc3)nc2C)cc1
> 10	Cc1nc(-c2ccc(C(F)(F)F)cc2)sc1C(=O)NCc1ccc(OCc2nn[nH]n2)cc1
> 10	Cc1nc(-c2ccc(C(F)(F)F)cc2)sc1C(=O)NCc1ccc(NC(=O)C(F)(F)F)cc1

Target: T6, Peroxisome proliferator-activated receptor delta (Mus musculus, UniProt P35396)
T6 sequence (P35396 whole entry): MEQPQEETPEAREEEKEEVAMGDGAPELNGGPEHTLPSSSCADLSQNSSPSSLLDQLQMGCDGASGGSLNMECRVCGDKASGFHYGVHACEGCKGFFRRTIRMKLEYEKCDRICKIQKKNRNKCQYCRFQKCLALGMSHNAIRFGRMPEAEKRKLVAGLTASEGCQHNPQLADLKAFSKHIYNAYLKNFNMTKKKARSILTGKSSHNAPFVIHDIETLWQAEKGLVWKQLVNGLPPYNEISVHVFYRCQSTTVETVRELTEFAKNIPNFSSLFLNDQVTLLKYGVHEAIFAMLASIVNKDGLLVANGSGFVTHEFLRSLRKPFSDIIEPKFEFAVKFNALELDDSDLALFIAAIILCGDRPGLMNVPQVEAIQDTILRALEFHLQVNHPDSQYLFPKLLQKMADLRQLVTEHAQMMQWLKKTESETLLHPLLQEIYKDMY
Description: Agonist activity at mouse PPARdelta assessed as receptor activation by cell based assay

EC50 [µM]	Structure (SMILES)
> 10	Cc1ccc(S(=O)(=O)Nc2ccc(CNC(=O)c3sc(-c4ccc(C(F)(F)F)cc4)nc3C)cc2)cc1
> 10	CCCCS(=O)(=O)Nc1ccc(CNC(=O)c2sc(-c3ccc(C(F)(F)F)cc3)nc2C)cc1
> 10	Cc1nc(-c2ccc(C(F)(F)F)cc2)sc1C(=O)NCc1ccc(OCc2nn[nH]n2)cc1
> 10	Cc1nc(-c2ccc(C(F)(F)F)cc2)sc1C(=O)NCc1ccc(NC(=O)C(F)(F)F)cc1

Target: T7, Peroxisome proliferator-activated receptor delta (Homo sapiens, UniProt Q03181)
T7 sequence (Q03181 whole entry): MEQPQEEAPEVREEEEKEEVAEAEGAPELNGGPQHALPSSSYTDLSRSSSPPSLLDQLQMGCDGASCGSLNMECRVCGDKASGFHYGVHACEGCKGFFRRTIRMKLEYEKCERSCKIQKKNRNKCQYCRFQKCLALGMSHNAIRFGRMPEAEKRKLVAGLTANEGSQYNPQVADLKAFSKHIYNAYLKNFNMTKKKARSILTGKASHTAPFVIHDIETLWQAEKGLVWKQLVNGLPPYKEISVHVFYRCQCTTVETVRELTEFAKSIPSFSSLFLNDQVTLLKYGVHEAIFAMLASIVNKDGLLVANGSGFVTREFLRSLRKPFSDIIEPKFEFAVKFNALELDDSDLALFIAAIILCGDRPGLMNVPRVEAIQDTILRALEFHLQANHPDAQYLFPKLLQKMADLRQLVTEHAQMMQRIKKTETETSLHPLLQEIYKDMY
Description: Agonist activity at human PPARdelta assessed as receptor activation by cell based assay

EC50 [µM]	Structure (SMILES)
> 10	Cc1ccc(S(=O)(=O)Nc2ccc(CNC(=O)c3sc(-c4ccc(C(F)(F)F)cc4)nc3C)cc2)cc1
> 10	CCCCS(=O)(=O)Nc1ccc(CNC(=O)c2sc(-c3ccc(C(F)(F)F)cc3)nc2C)cc1
> 10	Cc1nc(-c2ccc(C(F)(F)F)cc2)sc1C(=O)NCc1ccc(OCc2nn[nH]n2)cc1
> 10	Cc1nc(-c2ccc(C(F)(F)F)cc2)sc1C(=O)NCc1ccc(NC(=O)C(F)(F)F)cc1
